In patent publication US12338218B2, “Crystal form of benzimidazole-2-one compound, solvate thereof, crystal form of solvate thereof, and preparation method thereof” (MEDSHINE DISCOVERY INC., priority 2019, dated 2025):
Where two headings read alike, the source gives them in different places.

Tests used:
Format in all cases: physicochemical
[1] = Solid stability assay at high temperature, high humidity and strong light
Protocol: Method for Determining Content Disclosed Herein
Instrument model: Agilent 1260 high performance liquid chromatograph
Detailed parameters of chromatographic conditions were as follows:
Column temperature: 35° C.
Detection wavelength: 230 nm
Mobile phase A: 0.04% aqueous trifluoroacetic acid solution (V/V)
Mobile phase B: 100% acetonitrile
Diluent: acetonitrile: pure water=50:50 (V/V)
Probe Wash: acetonitrile: pure water=50:50 (V/V)
Gradient elution program: […]
According to “Guidelines for Stability Assay of APIs and Preparations” (Chinese Pharmacopoeia 2015 Edition, Volume IV, General Principles 9001), crystal form A of compound 1 was assayed for stability at high temperature (60° C., open), high humidity (room temperature/92.5% relative humidity, open) and strong light (5000±500 Lux, 90 μw/cm^2, sealed).
1.5 g of crystal form A of compound 1 was weighed, placed in an open watch glass, and spread into a thin layer. The samples placed under high temperature and high humidity conditions were placed in a desiccator for inspection, and samples were taken on the 5th, 10th, and 30th days for assaying. The assay results were compared with the initial assay results on day 0. The samples placed under strong light condition were covered with a quartz glass cover, and samples were taken on the 5th and 10th days for assaying. The assay results were compared with the initial assay results on day 0.

[2] = Hygroscopicity of crystal form A (dynamic vapor sorption)
Protocol: SEM Advantage-1 Dynamic Vapor Sorption Apparatus.
10-30 mg of crystal form A of compound 1 was weighed and placed in a DVS sample pan for assaying.

[3] = Solid stability assay under accelerated condition (40° C./75% relative humidity, sealed)
Protocol: According to “Guidelines for Stability Assay of APIs and Preparations” (Chinese Pharmacopoeia 2015 Edition, Volume IV, General Principles 9001), crystal form A of compound 1 was assayed for stability under accelerated condition of high temperature and high humidity (40° C./75% relative humidity, sealed).
(§1) 1.5 g of crystal form A of compound 1 was weighed and placed in a double-layer low-density polyethylene bag. Each layer of low-density polyethylene bag was sealed by buckling, respectively, and then the double-layer low-density polyethylene bag was placed in an aluminum foil bag and heat-sealed. Samples were taken on the 1st, 2nd, 3rd and 6th months for assaying, and the assay results were compared with the initial assay results on day 0.

[4] = Stability assay of crystal form A in different solvents (XRPD after 2 weeks)
Protocol: 17 aliquots of crystal form A of compound 1 were weighed (about 15 mg per aliquot), and an appropriate amount of a single or mixed solvent in the Table below was added, respectively. The suspension was stirred at room temperature or 50° C. for 2 weeks. Solids were collected by centrifugation, and detected by XRPD for the crystal form status.

[5] = Solid stability assay under long-term condition (25° C./60% relative humidity, sealed)
Protocol: According to “Guidelines for Stability Assay of APIs and Preparations” (Chinese Pharmacopoeia 2015 Edition, Volume IV, General Principles 9001), crystal form A of compound 1 was assayed for stability under long-term condition (25° C./60% relative humidity, sealed).
as §1, with “the” for “the 1st, 2nd,”

[6] = High humidity (room temperature/92.5% relative humidity, open), Day 5
[7] = High humidity (room temperature/92.5% relative humidity, open), Day 10
[8] = High humidity (room temperature/92.5% relative humidity, open), Day 30
[9] = High temperature (60° C., open), Day 5
[10] = High temperature (60° C., open), Day 10
[11] = High temperature (60° C., open), Day 30
[12] = Strong light (5000 ± 500 Lux, 90 μw/cm^2, sealed), Day 5
[13] = Strong light (5000 ± 500 Lux, 90 μw/cm^2, sealed), Day 10
[14] = 40° C./75% relative humidity, sealed, Month 1
[15] = 40° C./75% relative humidity, sealed, Month 2
[16] = 40° C./75% relative humidity, sealed, Month 3
[17] = 40° C./75% relative humidity, sealed, Month 6
[18] = 25° C./60% relative humidity, sealed, Month 3
[19] = 25° C./60% relative humidity, sealed, Month 6

CCOc1cc([C@@H](CS(C)(=O)=O)n2c(=O)[nH]c3cc(F)ccc32)ccc1OC [crystal form A of compound 1]
0.32%: Total impurity [1, 6] | Total impurity [1, 7] | Total impurity [1, 9] | Total impurity [1, 10] | Total impurity [3, 14]
101.3%: Content [1, 9]
Suspension: Status (after 2 weeks) ([4]; 1,4-Dioxane:n-heptane (1:1), 50° C.) | Status (after 2 weeks) ([4]; 2-Butanol:m-xylene (2:1), 50° C.) | Status (after 2 weeks) ([4]; 2-Methyltetrahydrofuran:n-octane (4:1), 50° C.) | Status (after 2 weeks) ([4]; Acetone:toluene (2:1), room temperature) | Status (after 2 weeks) ([4]; Acetonitrile:water (3:1), room temperature) | Status (after 2 weeks) ([4]; Dichloromethane:m-xylene (1:1), room temperature) | Status (after 2 weeks) ([4]; Dimethyl sulfoxide:water (2:1), 50° C.) | Status (after 2 weeks) ([4]; Ethanol:water (3:1), 50° C.) | Status (after 2 weeks) ([4]; Ethyl acetate:m-xylene (2:1), room temperature) | Status (after 2 weeks) ([4]; Isopropanol:water (85:5), room temperature) | Status (after 2 weeks) ([4]; Isopropanol:water (92:8), room temperature) | Status (after 2 weeks) ([4]; Isopropanol:water (95:5), room temperature) | Status (after 2 weeks) ([4]; Isopropanol:water (98:2), room temperature) | Status (after 2 weeks) ([4]; Methyl isobutyl ketone:n-hexane (2:1), 50° C.) | Status (after 2 weeks) ([4]; Methyl tert-butyl ether, room temperature) | Status (after 2 weeks) ([4]; Toluene, room temperature) | Status (after 2 weeks) ([4]; Water, room temperature)
101.1%: Content [1, 6]
0.05%: hygroscopic weight gain (ΔW) ([2]; DVS, 25° C. and 80% RH)
100.4%: Content [1, 12]
99.2%: Content [1, 11] | Content [3, 16]
good stability: solid stability (in words) ([1]; high temperature, high humidity, or strong light condition) | solid stability (in words) ([3]; accelerated condition of 40° C./75% relative humidity) | stability in solvents (in words) ([4]; methyl tert-butyl ether, toluene, water, mixed solvent of alcohol and water) | solid stability (in words) ([5]; long-term condition of 25° C./60% relative humidity)
0.33%: Total impurity ([1]; Day 0) | Total impurity [1, 8] | Total impurity [1, 11] | Total impurity [1, 12] | Total impurity [1, 13] | Total impurity [3, 15] | Total impurity [3, 16] | Total impurity [3, 17] | Total impurity ([3]; Day 0) | Total impurity [5, 19] | Total impurity ([5]; Day 0)
low hygroscopicity: hygroscopicity (in words) [2]
99.4%: Content [3, 15]
100.3%: Content [1, 7] | Content [1, 10]
99.0%: Content [5, 18]
0.34%: Total impurity [5, 18]
White: Appearance ([1]; Day 0) | Appearance [1, 6] | Appearance [1, 7] | Appearance [1, 8] | Appearance [1, 9] | Appearance [1, 10] | Appearance [1, 11] | Appearance [1, 12] | Appearance [1, 13] | Appearance [3, 14] | Appearance [3, 15] | Appearance [3, 16] | Appearance [3, 17] | Appearance ([3]; Day 0) | Appearance [5, 18] | Appearance [5, 19] | Appearance ([5]; Day 0)
no or almost no hygroscopicity: hygroscopicity (in words) ([2]; listed as Crystal form A of compound 1)
99.5%: Content ([1]; Day 0) | Content [1, 8] | Content [3, 14] | Content [3, 17] | Content ([3]; Day 0) | Content [5, 19] | Content ([5]; Day 0)
100.7%: Content [1, 13]
